Laboratory results: patent publication US20230085307A1, “PYRIDAZINONE COMPOUND AND HERBICIDE” (NISSAN CHEMICAL CORPORATION, priority 2019, published 2023)

What was measured:
[1] = test system: late watergrass; assay: Test Example 2: herbicidal activity, application during weed generation under submerged conditions (Table 17, symbol A); type: in vivo, late watergrass (Echinochloa oryzicola); settings: AAH 320 g/ha; application during weed generation, submerged conditions
Outline: (§1)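 Herbicide emulsion, diluted with water to the chosen amount, is applied onto 4 cm floodwater over alluvial soil where the weeds were co-sown and raised at 25–30° C. Application timing: 1–2 leaves. Assessment: three weeks afterwards.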

[2] = test system: Japanese bulrush; assay: Test Example 2: herbicidal activity, application during weed generation under submerged conditions (Table 17, symbol B); type: in vivo, Japanese bulrush (Schoenoplectus juncoides); settings: AAH 320 g/ha; application during weed generation, submerged conditions
Outline: as §1

[3] = test system: oval-leafed pondweed; assay: Test Example 2: herbicidal activity, application during weed generation under submerged conditions (Table 17, symbol C); type: in vivo, oval-leafed pondweed (Monochoria vaginalis); settings: AAH 320 g/ha; application during weed generation, submerged conditions
Outline: as §1

[4] = test system: southern crabgrass; assay: Test Example 4: herbicidal effect by soil treatment (Table 19, symbol F); type: in vivo, southern crabgrass (Digitaria ciliaris); settings: for herbicidal effect rating, F: southern crabgrass: 320 g/ha; for herbicidal effect on F: southern crabgrass: amount of applied herbicide 320 g/ha
Outline: (§2)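 Three weeks of greenhouse growth at 25° C. to 30° C. followed a uniform surface spray of water-diluted emulsion at a predetermined herbicide amount. Seeds had been sown beforehand under about 1.5 cm of sterilized diluvial soil. Grading followed criteria set out in an earlier test.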

[5] = test system: green foxtail; assay: Test Example 4: herbicidal effect by soil treatment (Table 19, symbol G); type: in vivo, green foxtail (Setaria viridis); settings: for herbicidal effect rating, G: green foxtail: 320 g/ha; for herbicidal effect on G: green foxtail: amount of applied herbicide 320 g/ha
Outline: as §2

[6] = test system: barnyard grass; assay: Test Example 4: herbicidal effect by soil treatment (Table 19, symbol H); type: in vivo, barnyard grass (Echinochloa crus-galli); settings: for herbicidal effect rating, H: barnyard grass: 320 g/ha; for herbicidal effect on H: barnyard grass: amount of applied herbicide 320 g/ha
Outline: as §2

[7] = test system: wild oat; assay: Test Example 4: herbicidal effect by soil treatment (Table 19, symbol I); type: in vivo, wild oat (Avena fatua); settings: for herbicidal effect rating, I: wild oat: 320 g/ha; for herbicidal effect on I: wild oat: amount of applied herbicide 320 g/ha
Outline: as §2

[8] = test system: blackgrass; assay: Test Example 4: herbicidal effect by soil treatment (Table 19, symbol J); type: in vivo, blackgrass (Alopecurus myosuroides); settings: for herbicidal effect rating, J: blackgrass: 320 g/ha; for herbicidal effect on J: blackgrass: amount of applied herbicide 320 g/ha
Outline: as §2

[9] = test system: velvetleaf; assay: Test Example 4: herbicidal effect by soil treatment (Table 19, symbol M); type: in vivo, velvetleaf (Abutilon theophrasti); settings: for herbicidal effect rating, M: velvetleaf: 320 g/ha; for herbicidal effect on M: velvetleaf: amount of applied herbicide 320 g/ha
Outline: as §2

[10] = test system: redroot pigweed; assay: Test Example 4: herbicidal effect by soil treatment (Table 19, symbol N); type: in vivo, redroot pigweed (Amaranthus retroflexus); settings: for herbicidal effect rating, N: redroot pigweed: 320 g/ha; for herbicidal effect on N: redroot pigweed: amount of applied herbicide 320 g/ha
Outline: as §2

[11] = test system: green foxtail; assay: Test Example 5: herbicidal effect by foliage application, plastic box (Table 20, symbol G); type: in vivo, green foxtail (Setaria viridis); settings: foliage application; for effect on green foxtail (G): 3 weeks after application; for G: green foxtail, herbicidal effect (criteria 0-5): AAH 320 g/ha
Outline: (§3)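 Plants sown in sterilized diluvial soil and grown 14 days in a greenhouse at 25° C to 30° C, then sprayed on the foliage with the compound's emulsion diluted in water to a predetermined herbicide amount. Injury to weeds and crops scored three weeks after application on a visual rating scale.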

[12] = test system: Italian ryegrass; assay: Test Example 5: herbicidal effect by foliage application, plastic box (Table 20, symbol K); type: in vivo, Italian ryegrass (Lolium multiflorum); settings: foliage application; for effect on Italian ryegrass (K): 3 weeks after application; for K: Italian ryegrass, herbicidal effect (criteria 0-5): AAH 320 g/ha
Outline: as §3

[13] = test system: lambsquarters; assay: Test Example 5: herbicidal effect by foliage application, plastic box (Table 20, symbol O); type: in vivo, lambsquarters (Chenopodium album); settings: foliage application; for effect on lambsquarters (O): 3 weeks after application; for O: lambsquarters, herbicidal effect (criteria 0-5): AAH 320 g/ha
Outline: as §3

[14] = test system: false cleavers; assay: Test Example 5: herbicidal effect by foliage application, plastic box (Table 20, symbol Q); type: in vivo, false cleavers (Galium spurium); settings: foliage application, 320 g/ha; for effect on false cleavers (Q): 3 weeks after application
Outline: as §3

[15] = test system: persian speedwell; assay: Test Example 5: herbicidal effect by foliage application, plastic box (Table 20, symbol R); type: in vivo, Persian speedwell (Veronica persica); settings: foliage application; for effect on persian speedwell (R): 3 weeks after application; for R: persian speedwell, herbicidal effect (criteria 0-5): AAH 320 g/ha
Outline: as §3

[16] = 320 g/ha, evaluated three weeks after application
[17] = evaluated three weeks after application

COc1ccc(-c2sc3ccc(F)cc3c2-c2c(O)c(C)nn(C)c2=O)cc1 [2-026]
herbicidal effect rating, A: late watergrass [1]: 1 (Herbicidal rate of 5% or more and less than 20%) | herbicidal effect rating, B: Japanese bulrush [2]: 4 (Herbicidal rate of 70% or more and less than 90%) | herbicidal effect rating, C: oval-leafed pondweed [3]: 5 (Herbicidal rate of 90% or more (almost completely withered)) | herbicidal effect rating, F: southern crabgrass [4]: 4 (Herbicidal rate of 70% or more and less than 90%) | herbicidal effect rating, G: green foxtail [5]: 3 (Herbicidal rate of 40% or more and less than 70%) | herbicidal effect rating, H: barnyard grass [6]: 4 (Herbicidal rate of 70% or more and less than 90%) | herbicidal effect rating, I: wild oat [7]: 3 (Herbicidal rate of 40% or more and less than 70%) | herbicidal effect rating, J: blackgrass [8]: 3 (Herbicidal rate of 40% or more and less than 70%) | herbicidal effect rating, M: velvetleaf [9]: 5 (Herbicidal rate of 90% or more (almost completely withered)) | herbicidal effect rating, N: redroot pigweed [10]: 5 (Herbicidal rate of 90% or more (almost completely withered)) | effect on green foxtail (G) ([11]; 320 g/ha): 4 (Herbicidal rate of 70% or more and less than 90%) | effect on Italian ryegrass (K) ([12]; 320 g/ha): 4 (Herbicidal rate of 70% or more and less than 90%) | effect on lambsquarters (O) ([13]; 320 g/ha): 4 (Herbicidal rate of 70% or more and less than 90%) | effect on false cleavers (Q) [14]: 4 (Herbicidal rate of 70% or more and less than 90%) | effect on persian speedwell (R) ([15]; 320 g/ha): 5 (Herbicidal rate of 90% or more (almost completely withered))

CCCCOc1ccc(-c2sc3ccc(F)cc3c2-c2c(O)c(C)nn(C)c2=O)cc1 [2-036]
herbicidal effect rating, A: late watergrass [1]: 0 (Herbicidal rate of 5% or less (almost no effect)) | herbicidal effect rating, B: Japanese bulrush [2]: 3 (Herbicidal rate of 40% or more and less than 70%) | herbicidal effect rating, C: oval-leafed pondweed [3]: 3 (Herbicidal rate of 40% or more and less than 70%) | herbicidal effect rating, F: southern crabgrass [4]: 2 (Herbicidal rate of 20% or more and less than 40%) | herbicidal effect rating, G: green foxtail [5]: 0 (Herbicidal rate of 5% or less (almost no effect)) | herbicidal effect rating, H: barnyard grass [6]: 0 (Herbicidal rate of 5% or less (almost no effect)) | herbicidal effect rating, I: wild oat [7]: 0 (Herbicidal rate of 5% or less (almost no effect)) | herbicidal effect rating, J: blackgrass [8]: 0 (Herbicidal rate of 5% or less (almost no effect)) | herbicidal effect rating, M: velvetleaf [9]: 4 (Herbicidal rate of 70% or more and less than 90%) | herbicidal effect rating, N: redroot pigweed [10]: 5 (Herbicidal rate of 90% or more (almost completely withered)) | effect on green foxtail (G) ([11]; 320 g/ha): 5 (Herbicidal rate of 90% or more (almost completely withered)) | effect on Italian ryegrass (K) ([12]; 320 g/ha): 3 (Herbicidal rate of 40% or more and less than 70%) | effect on lambsquarters (O) ([13]; 320 g/ha): 5 (Herbicidal rate of 90% or more (almost completely withered)) | effect on false cleavers (Q) [14]: 4 (Herbicidal rate of 70% or more and less than 90%) | effect on persian speedwell (R) ([15]; 320 g/ha): 5 (Herbicidal rate of 90% or more (almost completely withered))

CON=C(C)c1ccc(-c2sc3ccc(F)cc3c2-c2c(O)c(C)nn(C)c2=O)cc1 [2-079]
herbicidal effect rating, A: late watergrass [1]: 0 (Herbicidal rate of 5% or less (almost no effect)) | herbicidal effect rating, B: Japanese bulrush [2]: 0 (Herbicidal rate of 5% or less (almost no effect)) | herbicidal effect rating, C: oval-leafed pondweed [3]: 2 (Herbicidal rate of 20% or more and less than 40%) | herbicidal effect rating, F: southern crabgrass [4]: 5 (Herbicidal rate of 90% or more (almost completely withered)) | herbicidal effect rating, G: green foxtail [5]: 5 (Herbicidal rate of 90% or more (almost completely withered)) | herbicidal effect rating, H: barnyard grass [6]: 4 (Herbicidal rate of 70% or more and less than 90%) | herbicidal effect rating, I: wild oat [7]: 0 (Herbicidal rate of 5% or less (almost no effect)) | herbicidal effect rating, J: blackgrass [8]: 0 (Herbicidal rate of 5% or less (almost no effect)) | herbicidal effect rating, M: velvetleaf [9]: 4 (Herbicidal rate of 70% or more and less than 90%) | herbicidal effect rating, N: redroot pigweed [10]: 5 (Herbicidal rate of 90% or more (almost completely withered)) | herbicidal effect on G: green foxtail [11, 16]: 5 (Herbicidal rate of 90% or more (almost completely withered)) | herbicidal effect on K: Italian ryegrass [12, 16]: 5 (Herbicidal rate of 90% or more (almost completely withered)) | herbicidal effect on O: lambsquarters [13, 16]: 5 (Herbicidal rate of 90% or more (almost completely withered)) | herbicidal effect on Q: false cleavers [14, 17]: 5 (Herbicidal rate of 90% or more (almost completely withered)) | herbicidal effect on R: persian speedwell [15, 16]: 5 (Herbicidal rate of 90% or more (almost completely withered))

Cc1nn(C)c(=O)c(-c2c(-c3ccc(OC(F)F)cc3)sc3ccc(F)cc23)c1OCC(=O)c1ccccc1 [2-305]
herbicidal effect rating, A: late watergrass [1]: 3 (Herbicidal rate of 40% or more and less than 70%) | herbicidal effect rating, B: Japanese bulrush [2]: 3 (Herbicidal rate of 40% or more and less than 70%) | herbicidal effect rating, C: oval-leafed pondweed [3]: 0 (Herbicidal rate of 5% or less (almost no effect)) | herbicidal effect on F: southern crabgrass [4]: 0 (Herbicidal rate of 5% or less (almost no effect)) | herbicidal effect on G: green foxtail [5]: 0 (Herbicidal rate of 5% or less (almost no effect)) | herbicidal effect on H: barnyard grass [6]: 0 (Herbicidal rate of 5% or less (almost no effect)) | herbicidal effect on I: wild oat [7]: 0 (Herbicidal rate of 5% or less (almost no effect)) | herbicidal effect on J: blackgrass [8]: 0 (Herbicidal rate of 5% or less (almost no effect)) | herbicidal effect on M: velvetleaf [9]: 1 (Herbicidal rate of 5% or more and less than 20%) | herbicidal effect on N: redroot pigweed [10]: 4 (Herbicidal rate of 70% or more and less than 90%) | G: green foxtail, herbicidal effect (criteria 0-5) [11, 17]: 5 (Herbicidal rate of 90% or more (almost completely withered)) | K: Italian ryegrass, herbicidal effect (criteria 0-5) [12, 17]: 4 (Herbicidal rate of 70% or more and less than 90%) | O: lambsquarters, herbicidal effect (criteria 0-5) [13, 17]: 5 (Herbicidal rate of 90% or more (almost completely withered)) | R: persian speedwell, herbicidal effect (criteria 0-5) [15, 17]: 5 (Herbicidal rate of 90% or more (almost completely withered))

CC(=O)c1ccc(-c2sc3ccc(F)cc3c2-c2c(O)c(C)nn(C)c2=O)cc1 [2-339]
herbicidal effect rating, A: late watergrass [1]: 3 (Herbicidal rate of 40% or more and less than 70%) | herbicidal effect rating, B: Japanese bulrush [2]: 3 (Herbicidal rate of 40% or more and less than 70%) | herbicidal effect rating, C: oval-leafed pondweed [3]: 3 (Herbicidal rate of 40% or more and less than 70%) | herbicidal effect on F: southern crabgrass [4]: 0 (Herbicidal rate of 5% or less (almost no effect)) | herbicidal effect on G: green foxtail [5]: 0 (Herbicidal rate of 5% or less (almost no effect)) | herbicidal effect on H: barnyard grass [6]: 0 (Herbicidal rate of 5% or less (almost no effect)) | herbicidal effect on I: wild oat [7]: 0 (Herbicidal rate of 5% or less (almost no effect)) | herbicidal effect on J: blackgrass [8]: 2 (Herbicidal rate of 20% or more and less than 40%) | herbicidal effect on M: velvetleaf [9]: 5 (Herbicidal rate of 90% or more (almost completely withered)) | herbicidal effect on N: redroot pigweed [10]: 4 (Herbicidal rate of 70% or more and less than 90%) | G: green foxtail, herbicidal effect (criteria 0-5) [11, 17]: 4 (Herbicidal rate of 70% or more and less than 90%) | K: Italian ryegrass, herbicidal effect (criteria 0-5) [12, 17]: 5 (Herbicidal rate of 90% or more (almost completely withered)) | O: lambsquarters, herbicidal effect (criteria 0-5) [13, 17]: 4 (Herbicidal rate of 70% or more and less than 90%) | R: persian speedwell, herbicidal effect (criteria 0-5) [15, 17]: 5 (Herbicidal rate of 90% or more (almost completely withered))
